# Source: PMC4535450, “Two enzymes with redundant fructose bisphosphatase activity sustain gluconeogenesis and virulence in Mycobacterium tuberculosis” (Nature Communications, 2015)
# Target: GLPX (Rv1099c) (Mycobacterium tuberculosis, UniProt P9WN21)
# Assay type: biochemical
smiles,measurement,value
"O=P(O)(O)OC[C@H]1OC(O)(COP(=O)(O)O)[C@@H](O)[C@@H]1O (stereo partly shown) [fructose 1,6-bisphosphate]","coupled spectrophotometric assay (phosphoglucoisomerase / G6P dehydrogenase, NAD)",Expression of GLPX in ΔglpXΔgpm2 provided lithium-sensitive FBPase activity
